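How tested: cells in 96-well plates exposed to compound for 48 hours at five concentrations. GI50: concentration for 50% inhibition of growth. TGI marks complete inhibition of growth.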
Key:
Test in all cases: DTP human tumour cell line panel, 48 h
SK-OV-3 ovarian = system: SK-OV-3 ovarian
SR leukemia = system: SR leukemia
LOX IMVI melanoma = system: LOX IMVI melanoma
U251 CNS = system: U251 CNS
TK-10 renal = system: TK-10 renal
BT-549 breast = system: BT-549 breast
OVCAR-5 ovarian = system: OVCAR-5 ovarian
CAKI-1 renal = system: CAKI-1 renal
786-0 renal = system: 786-0 renal
SK-MEL-2 melanoma = system: SK-MEL-2 melanoma
SF-268 CNS = system: SF-268 CNS
HCT-15 colon = system: HCT-15 colon
NCI/ADR-RES ovarian = system: NCI/ADR-RES ovarian
NCI-H460 lung = system: NCI-H460 lung
SF-295 CNS = system: SF-295 CNS
HCT-116 colon = system: HCT-116 colon
PC-3 prostate = system: PC-3 prostate
M14 melanoma = system: M14 melanoma
RXF 393 renal = system: RXF 393 renal
OVCAR-4 ovarian = system: OVCAR-4 ovarian
UACC-62 melanoma = system: UACC-62 melanoma
SK-MEL-5 melanoma = system: SK-MEL-5 melanoma
KM12 colon = system: KM12 colon
NCI-H226 lung = system: NCI-H226 lung
SNB-19 CNS = system: SNB-19 CNS
HOP-62 NSCLC = system: HOP-62 NSCLC
OVCAR-3 ovarian = system: OVCAR-3 ovarian
RPMI-8226 leukemia = system: RPMI-8226 leukemia
SNB-75 CNS = system: SNB-75 CNS
K-562 leukemia = system: K-562 leukemia
HL-60(TB) leukemia = system: HL-60(TB) leukemia
DU-145 prostate = system: DU-145 prostate
T-47D breast = system: T-47D breast
MDA-MB-231 breast = system: MDA-MB-231 breast
UO-31 renal = system: UO-31 renal
EKVX NSCLC = system: EKVX NSCLC
A549 NSCLC = system: A549 NSCLC
HOP-92 NSCLC = system: HOP-92 NSCLC
SW-620 colon = system: SW-620 colon
NCI-H522 lung = system: NCI-H522 lung
MOLT-4 leukemia = system: MOLT-4 leukemia
SK-MEL-28 melanoma = system: SK-MEL-28 melanoma
COLO 205 colon = system: COLO 205 colon
ACHN renal = system: ACHN renal
MDA-MB-435 = system: MDA-MB-435
IGROV1 ovarian = system: IGROV1 ovarian
UACC-257 melanoma = system: UACC-257 melanoma
HS 578T breast = system: HS 578T breast
OVCAR-8 ovarian = system: OVCAR-8 ovarian
SN12C renal = system: SN12C renal

With `COc1cccc(C2NC(=S)NC(C)=C2C(=O)Nc2ccc(Cl)c(Cl)c2)c1` (stereo not given) the GI50 (SK-OV-3 ovarian) was 21.3 µM, the TGI (SK-OV-3 ovarian) was > 50 µM and the GI50 (SR leukemia) was 42.6 µM. For the same molecule, the TGI (SR leukemia) was > 50 µM, the GI50 (LOX IMVI melanoma) was 7.93 µM and the TGI (LOX IMVI melanoma) was 15.1 µM. The GI50 (U251 CNS) was > 50 µM, the TGI (U251 CNS) was > 50 µM and the GI50 (TK-10 renal) was 12.8 µM. It also gave a TGI (TK-10 renal) of 28.6 µM, a GI50 (BT-549 breast) of 7.15 µM and a TGI (BT-549 breast) of 16.8 µM. For the same molecule, the GI50 (OVCAR-5 ovarian) was 28.7 µM, the TGI (OVCAR-5 ovarian) was > 50 µM and the GI50 (CAKI-1 renal) was 9.69 µM. It also gave a TGI (CAKI-1 renal) of 22 µM, a GI50 (786-0 renal) of 10.7 µM and a TGI (786-0 renal) of 24 µM. The GI50 (SK-MEL-2 melanoma) was 15.7 µM, the TGI (SK-MEL-2 melanoma) was > 50 µM and the GI50 (SF-268 CNS) was 9.13 µM. For the same molecule, the TGI (SF-268 CNS) was 18.7 µM, the GI50 (HCT-15 colon) was 8.57 µM and the TGI (HCT-15 colon) was 22.6 µM. The GI50 (NCI/ADR-RES ovarian) was > 50 µM, the TGI (NCI/ADR-RES ovarian) was > 50 µM and the GI50 (NCI-H460 lung) was 8.21 µM. It also gave a TGI (NCI-H460 lung) of 16.3 µM, a GI50 (SF-295 CNS) of 9.72 µM and a TGI (SF-295 CNS) of 21.6 µM. It also gave a GI50 (HCT-116 colon) of 8.47 µM, a TGI (HCT-116 colon) of 15.9 µM and a GI50 (PC-3 prostate) of 14.3 µM. The TGI (PC-3 prostate) was > 50 µM, the GI50 (M14 melanoma) was 10.3 µM and the TGI (M14 melanoma) was 19.3 µM. It also gave a GI50 (RXF 393 renal) of 9.14 µM, a TGI (RXF 393 renal) of 22.3 µM and a GI50 (OVCAR-4 ovarian) of 12.8 µM. For the same molecule, the TGI (OVCAR-4 ovarian) was > 50 µM, the GI50 (UACC-62 melanoma) was 8.2 µM and the TGI (UACC-62 melanoma) was 15.9 µM. It also gave a GI50 (SK-MEL-5 melanoma) of 8.43 µM, a TGI (SK-MEL-5 melanoma) of 16.1 µM and a GI50 (KM12 colon) of 10.1 µM. The TGI (KM12 colon) was 20.5 µM, the GI50 (NCI-H226 lung) was 12.1 µM and the TGI (NCI-H226 lung) was 30.7 µM. The GI50 (SNB-19 CNS) was 15.6 µM, the TGI (SNB-19 CNS) was > 50 µM and the GI50 (HOP-62 NSCLC) was 11.6 µM. The TGI (HOP-62 NSCLC) was 20.3 µM, the GI50 (OVCAR-3 ovarian) was 8.88 µM and the TGI (OVCAR-3 ovarian) was 18.2 µM. The GI50 (RPMI-8226 leukemia) was 21 µM, the TGI (RPMI-8226 leukemia) was > 50 µM and the GI50 (SNB-75 CNS) was 34.8 µM. The TGI (SNB-75 CNS) was > 50 µM, the GI50 (K-562 leukemia) was 16.3 µM and the TGI (K-562 leukemia) was > 50 µM. For the same molecule, the GI50 (HL-60(TB) leukemia) was > 50 µM, the TGI (HL-60(TB) leukemia) was > 50 µM and the GI50 (DU-145 prostate) was 0.00711 µM. For the same molecule, the TGI (DU-145 prostate) was 12 µM, the GI50 (T-47D breast) was 14.4 µM and the TGI (T-47D breast) was > 50 µM. The GI50 (MDA-MB-231 breast) was 9.41 µM, the TGI (MDA-MB-231 breast) was 19.6 µM and the GI50 (UO-31 renal) was 9.1 µM. It also gave a TGI (UO-31 renal) of 17.9 µM, a GI50 (EKVX NSCLC) of 5.63 µM and a TGI (EKVX NSCLC) of 14.3 µM. The GI50 (A549 NSCLC) was 17.9 µM, the TGI (A549 NSCLC) was > 50 µM and the GI50 (HOP-92 NSCLC) was 12.5 µM. The TGI (HOP-92 NSCLC) was 38.7 µM, the GI50 (SW-620 colon) was 22.3 µM and the TGI (SW-620 colon) was > 50 µM. For the same molecule, the GI50 (NCI-H522 lung) was 18.3 µM, the TGI (NCI-H522 lung) was > 50 µM and the GI50 (MOLT-4 leukemia) was > 50 µM. For the same molecule, the TGI (MOLT-4 leukemia) was > 50 µM, the GI50 (SK-MEL-28 melanoma) was 13.3 µM and the TGI (SK-MEL-28 melanoma) was 47.7 µM. For the same molecule, the GI50 (COLO 205 colon) was 9.41 µM, the TGI (COLO 205 colon) was 30.5 µM and the GI50 (ACHN renal) was 10.1 µM. For the same molecule, the TGI (ACHN renal) was 23.2 µM, the GI50 (MDA-MB-435) was 8.22 µM and the TGI (MDA-MB-435) was 16.8 µM. The GI50 (IGROV1 ovarian) was 11.3 µM, the TGI (IGROV1 ovarian) was 28.5 µM and the GI50 (UACC-257 melanoma) was 12.4 µM. It also gave a TGI (UACC-257 melanoma) of 28.9 µM, a GI50 (HS 578T breast) of 10.7 µM and a TGI (HS 578T breast) of 28.8 µM. It also gave a GI50 (OVCAR-8 ovarian) of 12.4 µM, a TGI (OVCAR-8 ovarian) of 23.9 µM and a GI50 (SN12C renal) of 9.14 µM. It also gave a TGI (SN12C renal) of 17.1 µM.

Source: PubChem BioAssay (NCI)
